Experimental data published in ChEMBL document CHEMBL6121005 (Eur J Med Chem, 2025).
The source made the active and inactive calls. No cut-off for these calls is given here.

How the values were obtained:
Cholinesterase [1] = biological target: T1, Cholinesterase (Homo sapiens, UniProt P06276); assay: Inhibition of human serum BuChE using butyrylthiocholine iodide as substrate at 10 uM incubated for 10 mins followed by substrate addition by DTNB reagent based Ellman's method relative to control
Acetylcholinesterase = Acetylcholinesterase (Homo sapiens, UniProt P22303); assay: Inhibition of human erythrocytes AChE measured after 10 mins by Ellman's method
Cholinesterase [2] = biological target: T1, Cholinesterase; assay: Inhibition of human serum BuChE using butyrylthiocholine iodide as substrate incubated for 10 mins followed by substrate addition by DTNB reagent based Ellman's method
PC-12 [3] = assay: Antioxidant activity against H2O2-induced toxicity in rat PC12 cells at 12.5 uM preincubated for 2 hrs and measured after 24 hrs by CCK-8 assay; type: functional, cell-based; conditions: time 26.0 hrs
PC-12 [4] = assay: Cytoprotective against rat PC12 cells assessed as cell viability at 50 uM preincubated for 24 hrs and measured after 4 hrs by CCK-8 assay; type: functional, cell-based
PC-12 [5] = assay: (§1) Neuroprotective activity against H2O2-induced rat PC12 cells assessed as protection against H2O2-induced apoptosis by measuring viable cells at 50 uM pretreated for 2 hrs followed by H2O2 addition and measured after 24 hrs by Annexin V-FITC/PI staining based flow cytometry analysis (reference value: 90.8 %); type: functional; conditions: time 26 hrs
PC-12 [6] = assay: as §1, with “early apoptotic” for “viable”, “0.88” for “90.8”; type: functional; conditions: time 26 hrs
PC-12 [7] = assay: as §1, with “late apoptotic” for “viable”, “7.26” for “90.8”; type: functional; conditions: time 26 hrs
PC-12 [8] = assay: as §1, with “necrotic” for “viable”, “0.99” for “90.8”; type: functional; conditions: time 26 hrs
[9] = Inhibition of H2O2-induced ROS release in rat PC12 cells assessed as mean fluorescence intensity at 50 uM preincubated for 2 hrs followed by H2O2 addition and measured after 24 hrs by DCFH-DA based flow cytometry analysis (reference value: 23904); type: functional, PC-12; conditions: time 26 hrs
[10] = Acute toxicity in male ICR mouse assessed as mortality at 100 to 1000 mg/kg, po administered as single dose for 14 days; type: organism-based; conditions: in vivo, 336 h, dose 100-1000 mg/kg, time 14 day
[11] = Acute toxicity in male ICR mouse assessed as effect on body weight at 100 to 1000 mg/kg, po administered for 14 days; type: organism-based; conditions: in vivo, 336 h, dose 100-1000 mg/kg, time 14 day
[12] = Acute toxicity in male ICR mouse assessed as microscopic heart damage at 100 to 1000 mg/kg, po administered for 14 days by hematoxylin and eosin staining based assay; type: organism-based; conditions: in vivo, 336 h, dose 100-1000 mg/kg, time 14 day
[13] = Acute toxicity in male ICR mouse assessed as microscopic liver damage at 100 to 1000 mg/kg, po administered for 14 days by hematoxylin and eosin staining based assay; type: organism-based; conditions: in vivo, 336 h, dose 100-1000 mg/kg, time 14 day
[14] = Acute toxicity in male ICR mouse assessed as microscopic spleen damage at 100 to 1000 mg/kg, po administered for 14 days by hematoxylin and eosin staining based assay; type: organism-based; conditions: in vivo, 336 h, dose 100-1000 mg/kg, time 14 day
[15] = Acute toxicity in male ICR mouse assessed as microscopic lungs damage at 100 to 1000 mg/kg, po administered for 14 days by hematoxylin and eosin staining based assay; type: organism-based; conditions: in vivo, 336 h, dose 100-1000 mg/kg, time 14 day
[16] = Acute toxicity in male ICR mouse assessed as microscopic kidneys damage at 100 to 1000 mg/kg, po administered for 14 days by hematoxylin and eosin staining based assay; type: organism-based; conditions: in vivo, 336 h, dose 100-1000 mg/kg, time 14 day
[17] = Acute toxicity in male ICR mouse assessed as microscopic brain damage at 100 to 1000 mg/kg, po administered for 14 days by hematoxylin and eosin staining based assay; type: organism-based; conditions: in vivo, 336 h, dose 100-1000 mg/kg, time 14 day
Mus musculus [18] = assay: Antialzheimer activity against amyloid beta (1 to 42)-induced ICR mouse cognitive deficit model assessed as increase in alternation performance at 2.5 mg/kg, po administered daily and measured on day 12 by Y-maze test relative to control; type: functional; conditions: time 12 day
Mus musculus [19] = assay: Antialzheimer activity against amyloid beta (1 to 42)-induced ICR mouse cognitive deficit model assessed as increase in alternation performance at 10 mg/kg, po administered daily and measured on day 12 by Y-maze test relative to control; type: functional; conditions: time 12 day
Mus musculus [20] = assay: Antialzheimer activity against amyloid beta (1 to 42)-induced ICR mouse cognitive deficit model assessed as increase in step-through latency time at 5 to 10 mg/kg, po administered daily and measured on day 13 and 14 by step-through passive avoidance test; type: functional, organism-based; conditions: dose 5-10 mg/kg, time 13-14 day
Mus musculus [21] = assay: Antialzheimer activity against amyloid beta (1 to 42)-induced ICR mouse memory impairment model assessed as mean escape latency at 2.5 to 10 mg/kg, po administered daily and measured after 15 to 19 days by Morris water maze test; type: functional, organism-based; conditions: dose 2.5-10 mg/kg, time 15-19 day
Mus musculus [22] = assay: Antialzheimer activity against amyloid beta (1 to 42)-induced ICR mouse memory impairment model assessed as decrease in movement distance at 2.5 to 10 mg/kg, po administered daily and measured after 15 to 19 days by Morris water maze test; type: functional, organism-based; conditions: dose 2.5-10 mg/kg, time 15-19 day
Mus musculus [23] = assay: Antialzheimer activity against amyloid beta (1 to 42)-induced ICR mouse cognitive deficit model assessed as increase in alternation performance at 5 mg/kg, po administered daily and measured on day 12 by Y-maze test relative to control; type: functional; conditions: time 12 day
Mus musculus [24] = assay: Antialzheimer activity in amyloid beta (1 to 42 residues) induced ICR mouse memory impairment model assessed as increase in trajectory after platform removal at 2.5 to 10 mg/kg, po administered daily and measured after 15 to 19 days by Morris water maze test; type: functional, organism-based; conditions: dose 2.5-10 mg/kg, time 15-19 day
Mus musculus [25] = assay: Antialzheimer activity in amyloid beta (1 to 42 residues) induced ICR mouse assessed as increase in distance travelled within target quadrant at 2.5 to 5 mg/kg, po administered daily and measured after 15 to 19 days by Morris water maze test; type: functional, organism-based; conditions: dose 2.5-5 mg/kg, time 15-19 day
Mus musculus [26] = assay: Antialzheimer activity in amyloid beta (1 to 42 residues) induced ICR mouse assessed as increase in time spent within target quadrant at 2.5 to 5 mg/kg, po administered daily and measured after 15 to 19 days by Morris water maze test; type: functional, organism-based; conditions: dose 2.5-5 mg/kg, time 15-19 day
Mus musculus [27] = assay: Antialzheimer activity in scopolamine-induced temporary memory and cognitive impairment ICR mouse model assessed as increase in step-through latency time at 2.5 to 10 mg/kg, po administered daily and measured on day 13 and 14 by step-through passive avoidance test; type: functional, organism-based; conditions: dose 2.5-10 mg/kg, time 13-14 day
Mus musculus [28] = assay: Antialzheimer activity in scopolamine-induced temporary memory and cognitive impairment ICR mouse model assessed as alternation performance at 2.5 to 5 mg/kg, po administered daily and measured on day 15 by Y-maze test; type: functional, organism-based; conditions: dose 2.5-5 mg/kg, time 15.0 day
Mus musculus [29] = assay: Antialzheimer activity in scopolamine-induced temporary memory and cognitive impairment ICR mouse model assessed as alternation performance at 10 mg/kg, po administered daily and measured on day 15 by Y-maze test; type: functional, organism-based; conditions: time 15.0 day
Mus musculus [30] = assay: Antialzheimer activity against scopolamine-induced ICR mouse cognitive deficit model assessed as latency time at 2.5 to 10 mg/kg, po administrated daily and measured on initial day of training by Morris water maze test; type: functional; conditions: dose 2.5-10 mg/kg
Mus musculus [31] = assay: Antialzheimer activity against scopolamine-induced ICR mouse cognitive deficit model assessed as decrease in latency time at 2.5 to 10 mg/kg, po administrated daily and measured on last day of training by Morris water maze test; type: functional, organism-based; conditions: dose 2.5-10 mg/kg
Mus musculus [32] = assay: Antialzheimer activity against scopolamine-induced ICR mouse cognitive deficit model assessed as decrease in movement distance at 2.5 to 10 mg/kg, po administrated daily and measured on last day of training by Morris water maze test; type: functional, organism-based; conditions: dose 2.5-10 mg/kg
[33] = Cytotoxicity against rat PC12 cells assessed as cell viability at 50 uM preincubated for 24 hrs and measured after 4 hrs by CCK-8 assay; type: toxicity, cell-based, PC-12; conditions: time 28 hrs, read-out: Activity
Mus musculus [34] = assay: Antialzheimer activity in scopolamine-induced ICR mouse assessed as increase in trajectory within target quadrant at 2.5 to 10 mg/kg, po administered daily and measured after 16 to 20 days by Morris water maze test; type: functional, organism-based; conditions: dose 2.5-10 mg/kg, time 16-20 day
Mus musculus [35] = assay: Antialzheimer activity in scopolamine- induced ICR mouse assessed as increase in time spent within target quadrant at 2.5 to 10 mg/kg, po administered daily and measured after 16 to 20 days by Morris water maze test; type: functional, organism-based; conditions: dose 2.5-10 mg/kg, time 16-20 day
Mus musculus [36] = assay: Antialzheimer activity in scopolamine- induced ICR mouse assessed as increase in distance travelled within target quadrant at 2.5 to 10 mg/kg, po administered daily and measured after 16 to 20 days by Morris water maze test; type: functional, organism-based; conditions: dose 2.5-10 mg/kg, time 16-20 day

T1 sequence (P06276 whole entry): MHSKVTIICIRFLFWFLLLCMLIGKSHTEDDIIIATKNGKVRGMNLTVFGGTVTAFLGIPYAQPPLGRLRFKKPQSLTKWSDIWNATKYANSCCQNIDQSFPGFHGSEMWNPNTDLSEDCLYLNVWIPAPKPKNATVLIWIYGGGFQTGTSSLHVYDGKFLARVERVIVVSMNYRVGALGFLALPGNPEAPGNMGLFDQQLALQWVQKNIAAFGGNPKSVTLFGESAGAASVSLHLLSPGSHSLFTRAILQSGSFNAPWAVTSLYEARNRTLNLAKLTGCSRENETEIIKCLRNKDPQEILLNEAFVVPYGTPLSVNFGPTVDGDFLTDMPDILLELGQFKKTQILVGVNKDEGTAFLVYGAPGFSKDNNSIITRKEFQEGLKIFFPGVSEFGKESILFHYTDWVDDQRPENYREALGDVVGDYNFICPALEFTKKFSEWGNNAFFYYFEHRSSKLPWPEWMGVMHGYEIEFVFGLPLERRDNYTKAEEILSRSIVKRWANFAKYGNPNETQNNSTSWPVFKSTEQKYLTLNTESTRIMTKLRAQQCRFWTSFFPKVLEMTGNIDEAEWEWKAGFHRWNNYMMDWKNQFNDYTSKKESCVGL
Acetylcholinesterase, sequence (P22303 whole entry): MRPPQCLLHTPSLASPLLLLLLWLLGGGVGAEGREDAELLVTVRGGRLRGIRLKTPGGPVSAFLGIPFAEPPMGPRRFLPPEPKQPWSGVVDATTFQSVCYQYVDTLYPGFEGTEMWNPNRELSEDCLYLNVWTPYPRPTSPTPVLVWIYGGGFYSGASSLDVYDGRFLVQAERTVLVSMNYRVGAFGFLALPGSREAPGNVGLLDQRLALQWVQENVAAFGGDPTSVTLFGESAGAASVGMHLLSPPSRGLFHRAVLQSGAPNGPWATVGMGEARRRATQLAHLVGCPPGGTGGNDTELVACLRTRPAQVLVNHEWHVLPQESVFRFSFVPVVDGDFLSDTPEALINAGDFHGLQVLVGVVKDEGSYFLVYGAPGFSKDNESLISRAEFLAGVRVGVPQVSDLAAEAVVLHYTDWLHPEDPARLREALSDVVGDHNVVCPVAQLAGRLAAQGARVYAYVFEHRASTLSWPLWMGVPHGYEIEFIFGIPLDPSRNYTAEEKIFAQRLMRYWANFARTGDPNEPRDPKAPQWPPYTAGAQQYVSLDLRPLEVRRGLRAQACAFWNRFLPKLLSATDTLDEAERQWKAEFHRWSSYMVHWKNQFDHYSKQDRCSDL

COc1ccc2c3c1O[C@H]1C[C@@H](OCc4ccc(Cc5ccccc5F)cn4)C=C[C@@]31CCN(C)C2
inhibition (Cholinesterase [1]): 96.5%
IC50 (Acetylcholinesterase): 514 nM
IC50 (Cholinesterase [2]): 358 nM
Activity (PC-12 [3]): Dose-dependent-effect
Activity (PC-12 [4]): Active
Activity (PC-12 [5]): 86%
Activity (PC-12 [6]): 5.42%
Activity (PC-12 [7]): 7.35%
Activity (PC-12 [8]): 1.21%
Flu intensity [9]: 41314
Activity [10]: Non-toxic
Activity [11]: Non-toxic
Activity [12]: Non-toxic
Activity [13]: Non-toxic
Activity [14]: Non-toxic
Activity [15]: Non-toxic
Activity [16]: Non-toxic
Activity [17]: Non-toxic
Activity (Mus musculus [18]): 72.91%
Activity (Mus musculus [19]): 76.91%
Activity (Mus musculus [20]): Active
Activity (Mus musculus [21]): Active
Activity (Mus musculus [22]): Active
Activity (Mus musculus [23]): 73.56%
Activity (Mus musculus [24]): Active
Activity (Mus musculus [25]): Active
Activity (Mus musculus [26]): Active
Activity (Mus musculus [27]): Dose-dependent-effect
Activity (Mus musculus [28]): Active
Activity (Mus musculus [29]): inactive
Time (Mus musculus [30]): 60 s
Activity (Mus musculus [31]): Active
Activity (Mus musculus [32]): Active
viability at 4 h, 50 µM [33]: > 90%
Activity (Mus musculus [34]): Active
Activity (Mus musculus [35]): Dose-dependent-effect
Activity (Mus musculus [36]): Dose-dependent-effect
